From ChEMBL document CHEMBL4354805, “Discovery of MK-8719, a Potent O-GlcNAcase Inhibitor as a Potential Treatment for Tauopathies” (J Med Chem, 2019)

Columns and labels:
[1] = Fraction unbound in Beagle dog plasma at 1 uM by equilibrium dialysis; type: ADME, cell-free, Canis lupus familiaris
[2] = Fraction unbound in rhesus monkey plasma at 1 uM by equilibrium dialysis; type: ADME, cell-free, Macaca mulatta
[3] = Clearance in Beagle dog at 1 mg/kg, iv; type: ADME, organism-based, Canis lupus familiaris; settings: in vivo
[4] = Drug uptake in rat brain at 3 mg/kg, po measured after 8 hrs; type: ADME, organism-based; settings: in vivo
[5] = Ratio of drug level in rat blood to plasma; type: ADME, cell-free; settings: whole blood
Rattus norvegicus [6] = assay: Elevation of O-protein in rat brain at 3 mg/kg, po measured after 24 hrs relative to control; type: functional
Nav1.5 = Nav1.5 (Homo sapiens, UniProt Q14524); assay: Inhibition of Nav1.5 (unknown origin) at 30 uM
Sequence of Nav1.5 (Q14524 whole entry): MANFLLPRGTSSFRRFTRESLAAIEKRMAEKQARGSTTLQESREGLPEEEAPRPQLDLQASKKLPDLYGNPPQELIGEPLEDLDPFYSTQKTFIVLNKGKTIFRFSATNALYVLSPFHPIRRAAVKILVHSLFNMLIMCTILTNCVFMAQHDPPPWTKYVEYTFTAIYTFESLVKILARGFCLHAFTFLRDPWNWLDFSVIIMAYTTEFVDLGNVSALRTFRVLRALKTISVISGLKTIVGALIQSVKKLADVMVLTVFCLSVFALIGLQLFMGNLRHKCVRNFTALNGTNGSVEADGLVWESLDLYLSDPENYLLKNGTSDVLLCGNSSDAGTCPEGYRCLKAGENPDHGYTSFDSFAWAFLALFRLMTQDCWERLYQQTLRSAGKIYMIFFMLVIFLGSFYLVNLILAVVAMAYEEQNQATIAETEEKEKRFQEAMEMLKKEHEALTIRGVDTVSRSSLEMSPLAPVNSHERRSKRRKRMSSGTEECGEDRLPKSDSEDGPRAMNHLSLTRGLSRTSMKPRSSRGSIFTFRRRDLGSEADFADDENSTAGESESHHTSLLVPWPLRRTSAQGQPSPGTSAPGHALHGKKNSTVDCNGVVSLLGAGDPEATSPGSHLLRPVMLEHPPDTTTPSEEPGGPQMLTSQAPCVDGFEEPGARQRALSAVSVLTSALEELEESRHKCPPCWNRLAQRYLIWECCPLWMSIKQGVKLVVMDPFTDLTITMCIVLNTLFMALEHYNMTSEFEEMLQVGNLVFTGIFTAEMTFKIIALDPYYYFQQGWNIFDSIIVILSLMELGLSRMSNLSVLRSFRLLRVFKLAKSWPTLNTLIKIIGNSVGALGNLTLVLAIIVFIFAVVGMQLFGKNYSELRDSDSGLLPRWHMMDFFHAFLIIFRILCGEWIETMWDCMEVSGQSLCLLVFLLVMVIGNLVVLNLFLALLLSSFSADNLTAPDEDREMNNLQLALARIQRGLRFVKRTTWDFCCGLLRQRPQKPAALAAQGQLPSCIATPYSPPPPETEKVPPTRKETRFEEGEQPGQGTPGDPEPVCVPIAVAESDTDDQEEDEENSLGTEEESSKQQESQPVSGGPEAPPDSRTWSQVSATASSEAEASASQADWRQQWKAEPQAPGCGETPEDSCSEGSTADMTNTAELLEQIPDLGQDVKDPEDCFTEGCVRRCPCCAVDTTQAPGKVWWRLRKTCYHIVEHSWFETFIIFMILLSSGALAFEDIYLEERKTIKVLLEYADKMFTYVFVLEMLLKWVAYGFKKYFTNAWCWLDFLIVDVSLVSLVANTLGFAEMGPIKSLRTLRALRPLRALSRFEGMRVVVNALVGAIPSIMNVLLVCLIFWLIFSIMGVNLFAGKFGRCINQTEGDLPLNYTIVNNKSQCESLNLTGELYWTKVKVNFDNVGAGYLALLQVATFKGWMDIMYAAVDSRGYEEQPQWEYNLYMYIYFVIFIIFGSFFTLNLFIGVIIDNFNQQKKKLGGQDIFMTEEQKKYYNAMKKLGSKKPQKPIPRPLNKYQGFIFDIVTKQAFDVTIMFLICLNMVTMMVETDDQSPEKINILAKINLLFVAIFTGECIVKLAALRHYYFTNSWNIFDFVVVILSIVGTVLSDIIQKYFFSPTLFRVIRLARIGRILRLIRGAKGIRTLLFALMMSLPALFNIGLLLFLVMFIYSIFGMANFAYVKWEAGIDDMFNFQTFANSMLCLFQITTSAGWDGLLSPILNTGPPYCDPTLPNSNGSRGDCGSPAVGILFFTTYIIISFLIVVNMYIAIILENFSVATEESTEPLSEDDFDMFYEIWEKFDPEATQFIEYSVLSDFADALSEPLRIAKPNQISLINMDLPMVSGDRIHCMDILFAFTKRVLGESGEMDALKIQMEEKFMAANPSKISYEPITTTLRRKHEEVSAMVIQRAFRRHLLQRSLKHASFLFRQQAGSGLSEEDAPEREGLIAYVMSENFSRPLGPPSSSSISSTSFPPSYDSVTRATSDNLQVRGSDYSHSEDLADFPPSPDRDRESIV

[7] = Cmax in telemetered dog at 380 mg/kg, po; type: ADME, organism-based, Canis lupus familiaris; parameters: dose 380 mg/kg, route oral; settings: in vivo
MDR1 = assay: Apparent permeability in pig LLC-PK1 cells transfected with MDR1; type: ADME, cell-based, Sus scrofa
[8] = Cmax in rat assessed as change in histomorphology at 1000 mg/kg, po administered for 7 days and measured on day 8; type: ADME, organism-based; parameters: dose 1000 mg/kg, route oral; settings: in vivo
[9] = AUCN in Wistar Han rat at 10 mg/kg, po; type: ADME, organism-based; settings: in vivo
[10] = Clearance in Wistar Han rat at 2 mg/kg, iv; type: ADME, organism-based; settings: in vivo
[11] = Ratio of drug level in dog blood to plasma; type: ADME, cell-free, Canis lupus familiaris; settings: whole blood
Rattus norvegicus [12] = assay: Elevation of O-protein in rat brain at 10 mg/kg, po measured after 24 hrs; type: functional
[13] = AUC (0 to 24 hrs) in rat brain at 10 mg/kg, po measured upto 24 hrs; type: ADME, organism-based; parameters: dose 10 mg/kg, time < 24 hr, route oral; settings: in vivo
Rattus norvegicus [14] = assay: Hemodynamic activity in telemetered rat at 380 mg/kg, po; type: ADME, organism-based; settings: in vivo
[15] = Clearance in rhesus monkey at 1 mg/kg, iv; type: ADME, organism-based, Macaca mulatta; settings: in vivo
Protein O-GlcNAcase = biological target: T1, Protein O-GlcNAcase (Homo sapiens, UniProt O60502); assay: Inhibition of recombinant human OGA
T1 sequence (O60502 whole entry): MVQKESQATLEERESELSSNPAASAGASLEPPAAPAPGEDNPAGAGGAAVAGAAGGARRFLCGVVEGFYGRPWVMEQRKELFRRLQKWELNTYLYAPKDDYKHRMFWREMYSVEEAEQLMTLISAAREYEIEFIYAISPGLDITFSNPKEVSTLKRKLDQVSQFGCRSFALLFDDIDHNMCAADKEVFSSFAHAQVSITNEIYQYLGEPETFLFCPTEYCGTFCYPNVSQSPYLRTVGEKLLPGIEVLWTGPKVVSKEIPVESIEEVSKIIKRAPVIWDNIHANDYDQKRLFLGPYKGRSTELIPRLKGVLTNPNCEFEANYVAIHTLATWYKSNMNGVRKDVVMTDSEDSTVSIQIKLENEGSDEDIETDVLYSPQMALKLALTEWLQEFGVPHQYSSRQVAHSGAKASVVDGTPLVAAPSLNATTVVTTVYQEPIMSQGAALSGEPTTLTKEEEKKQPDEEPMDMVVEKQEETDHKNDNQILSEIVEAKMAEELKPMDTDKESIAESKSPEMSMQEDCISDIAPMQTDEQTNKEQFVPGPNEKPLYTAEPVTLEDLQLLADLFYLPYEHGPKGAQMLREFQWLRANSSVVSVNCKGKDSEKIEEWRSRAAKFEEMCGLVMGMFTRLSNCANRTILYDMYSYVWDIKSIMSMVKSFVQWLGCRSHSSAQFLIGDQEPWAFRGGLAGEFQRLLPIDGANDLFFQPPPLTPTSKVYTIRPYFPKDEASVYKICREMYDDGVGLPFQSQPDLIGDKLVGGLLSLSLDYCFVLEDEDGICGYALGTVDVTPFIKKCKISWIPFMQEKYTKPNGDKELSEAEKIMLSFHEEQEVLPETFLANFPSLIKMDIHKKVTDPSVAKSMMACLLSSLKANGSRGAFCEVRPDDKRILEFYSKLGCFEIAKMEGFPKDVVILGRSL

[16] = Fraction unbound in Wistar Han rat plasma at 2.5 uM by equilibrium dialysis; type: ADME, cell-free
IKr (KCNH2) = IKr (KCNH2) (Homo sapiens, UniProt Q12809); assay: Inhibition of IKr (unknown origin) at 30 uM
Sequence of IKr (KCNH2) (Q12809 whole entry): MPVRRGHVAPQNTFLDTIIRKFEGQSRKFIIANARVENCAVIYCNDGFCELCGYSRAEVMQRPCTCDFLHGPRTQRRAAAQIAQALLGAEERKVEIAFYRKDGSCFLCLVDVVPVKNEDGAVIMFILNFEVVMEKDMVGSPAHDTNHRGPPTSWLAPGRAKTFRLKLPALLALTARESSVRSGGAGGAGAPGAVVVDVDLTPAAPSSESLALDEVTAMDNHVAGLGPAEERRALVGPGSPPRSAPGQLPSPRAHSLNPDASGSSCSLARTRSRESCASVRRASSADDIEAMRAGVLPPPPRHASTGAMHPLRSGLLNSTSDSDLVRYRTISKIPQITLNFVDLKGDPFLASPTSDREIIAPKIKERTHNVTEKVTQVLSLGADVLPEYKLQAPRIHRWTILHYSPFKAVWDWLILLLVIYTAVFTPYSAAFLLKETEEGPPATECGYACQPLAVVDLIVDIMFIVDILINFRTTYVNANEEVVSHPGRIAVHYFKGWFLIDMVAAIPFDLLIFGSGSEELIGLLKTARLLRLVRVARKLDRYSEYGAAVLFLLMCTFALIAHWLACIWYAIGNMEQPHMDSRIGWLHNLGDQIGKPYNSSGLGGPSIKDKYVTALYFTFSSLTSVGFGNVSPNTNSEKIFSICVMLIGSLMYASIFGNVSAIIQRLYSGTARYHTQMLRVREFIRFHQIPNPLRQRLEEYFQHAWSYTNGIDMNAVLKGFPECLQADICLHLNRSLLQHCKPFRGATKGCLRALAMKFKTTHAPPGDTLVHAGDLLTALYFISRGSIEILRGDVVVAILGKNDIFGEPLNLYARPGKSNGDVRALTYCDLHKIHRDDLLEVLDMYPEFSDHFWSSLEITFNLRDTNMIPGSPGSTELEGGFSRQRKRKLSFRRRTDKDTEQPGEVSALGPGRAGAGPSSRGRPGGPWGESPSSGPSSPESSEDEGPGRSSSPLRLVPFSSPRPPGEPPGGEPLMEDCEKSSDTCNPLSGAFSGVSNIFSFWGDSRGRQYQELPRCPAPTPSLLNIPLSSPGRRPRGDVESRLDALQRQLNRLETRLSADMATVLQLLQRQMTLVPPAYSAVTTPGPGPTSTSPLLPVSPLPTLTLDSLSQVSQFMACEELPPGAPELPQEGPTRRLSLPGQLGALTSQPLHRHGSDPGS

[17] = biological target: T2, Beta-hexosaminidase subunit beta (Homo sapiens, UniProt P07686); assay: Inhibition of human beta hexosaminidase assessed as inhibitory constant using 4-methylumbelliferyl N-acetyl-beta-D-glucosaminide dihydrate as substrate measured every 60 sec for 45 mins by fluorescence spectrophotometry
T2 sequence (P07686 whole entry): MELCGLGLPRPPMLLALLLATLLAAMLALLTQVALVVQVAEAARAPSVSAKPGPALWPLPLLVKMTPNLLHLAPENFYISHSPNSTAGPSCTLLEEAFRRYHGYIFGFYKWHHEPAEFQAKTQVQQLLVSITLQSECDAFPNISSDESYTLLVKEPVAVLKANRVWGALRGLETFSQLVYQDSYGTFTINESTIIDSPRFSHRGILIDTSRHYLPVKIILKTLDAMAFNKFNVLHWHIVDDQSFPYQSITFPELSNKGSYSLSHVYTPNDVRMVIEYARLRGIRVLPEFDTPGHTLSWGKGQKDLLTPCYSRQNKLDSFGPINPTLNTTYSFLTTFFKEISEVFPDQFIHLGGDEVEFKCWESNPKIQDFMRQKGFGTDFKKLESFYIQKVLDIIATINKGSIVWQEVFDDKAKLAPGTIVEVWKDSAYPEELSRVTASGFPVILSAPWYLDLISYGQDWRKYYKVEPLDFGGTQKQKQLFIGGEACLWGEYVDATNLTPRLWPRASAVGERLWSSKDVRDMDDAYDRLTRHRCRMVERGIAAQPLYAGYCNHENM

[18] = Protein binding in dog plasma; type: ADME, cell-free, Canis lupus familiaris; settings: read-out: PPB
[19] = Toxicity in rat assessed as change in histomorphology at 1000 mg/kg, po administered for 7 days and measured on day 8; type: organism-based; settings: in vivo, 168 h
[20] = Ratio of drug uptake in rat brain to plasma at 3 mg/kg, po measured after 24 hrs; type: ADME, organism-based; settings: read-out: BPR
[21] = Protein binding in rat plasma; type: ADME, cell-free; settings: read-out: PPB
[22] = Volume of distribution at steady state in Beagle dog at 1 mg/kg, iv or 3 mg/kg, po; type: ADME, organism-based, Canis lupus familiaris; settings: in vivo, read-out: Vdss

fraction unbound at 1 µM [1]: > 0.99 | fraction unbound at 1 µM [2]: > 0.99 | clearance [3]: 11.7 mL/min/kg | Drug uptake [4]: 0.219 nmol/g | blood plasma ratio [5]: 0.9 to 1.1 | Papp (MDR1): 6.4 ×10⁻⁶ cm/s | Cmax [8]: 226 µM | AUC/dose [9]: 1.4 µM·kg·h/mg | clearance [10]: 36.7 mL/min/kg | blood plasma ratio [11]: 0.9 to 1.1 | AUC [13]: 9.64 nM·h/g | clearance [15]: 26.7 mL/min/kg | Ki (Protein O-GlcNAcase): 7.9 nM | fraction unbound at 2.5 µM [16]: 0.97 | Ki [17]: > 10000 nM | fraction unbound [18]: > 0.95 | Kp at 24 h [20]: ≥ 20.5 | fraction unbound [21]: > 0.95 | Vd [22]: 2.4 L/kg
SMILES: CCNC1=N[C@@H]2[C@@H](O)[C@H](O)[C@@H](C(F)F)O[C@@H]2S1
fold change (FC) (Rattus norvegicus [6]): 2.17 | inhibition at 30 µM (Nav1.5): < 50% | Cmax [7]: 660 µM | fold change (FC) (Rattus norvegicus [12]): 2.57 | Activity (Rattus norvegicus [14]): Non-Toxic | inhibition at 30 µM (IKr (KCNH2)): < 50% | Activity [19]: Non-Toxic
